The target of series [1] is T1, Human thymidine kinase 1 (TK1) (Homo sapiens, UniProt P04183).
T1 construct: His tag (from pET28b(+)) (N); made in house; host or cells: E. coli BL21-codon plus
T1 sequence (P04183 1-234): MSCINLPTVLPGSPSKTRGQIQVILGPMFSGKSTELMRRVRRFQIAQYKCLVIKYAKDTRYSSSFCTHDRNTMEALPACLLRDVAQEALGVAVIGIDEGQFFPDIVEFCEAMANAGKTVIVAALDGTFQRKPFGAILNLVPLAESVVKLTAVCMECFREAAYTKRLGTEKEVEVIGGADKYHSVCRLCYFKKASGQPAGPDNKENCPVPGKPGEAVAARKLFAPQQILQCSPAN
As to the kind of experiment: Thymidine kinase coupled (kinetic) ATP depletion assay. Format: biochemical. The conditions noted are these: initial velocity relative to thymidine; 100 μM conjugate. The procedure:
Thymidine kinase, viral thymidine kinase, TK-1 deoxycytidine kinase, and deoxyguanosine kinase activities are determined by subjecting a first end of a linker used in synthesizing linker-substrate constructs to a first test. The first test may involve observing ADP formation, an obligatory co-product of phospho group transfer from ATP which is catalyzed by the kinase to the C5′ hydroxyl group or its equivalent in the nucleoside or nucleoside analog. Formation of ADP is followed by a coupled enzyme assay well known in the art. ADP, formed from kinase phosphorylation, is used by pyruvate kinase to generate pyruvate from phosphoenolpyruvate which in turn is converted to lactate by lactate dehydrogenase. The lactate results in the consumption of NADH which is followed spectrophotometrically. The rate of nucleoside phosphorylation is then directly related to the rate of decrease in the observed NADH signal.
TK1 was amplified using PCR with forward primer 5′-[…]-3′ and reverse primer 5′-[…]-3′. The PCR product was digested with Nde I and Hind III. An N-terminal His-tagged TK1 construct, TK1/pET28b(+), was generated by subcloning TK1 into the Nde I and Hind III sites of prokaryotic expression vector pET28b (+) (Novagen, San Diego, Calif.). TK1 was expressed from TK1/pET28b(+) using E. coli strain BL21-codon plus (Stratagene, San Diego, Calif.) and purified by Ni column chromatography.
A coupled (kinetic) ATP depletion assay was developed to measure thymidine kinase activity. The reaction contained 100 mM Tris HCl, pH 7.5, 20 mM MgCl2, 100 mM KCl, 0.4 mM PEP, 0.2 mM NADH, Pyruvate Kinase (0.7 units)/Lactate Dehydrogenase (1.0 unit) (Sigma #PO294), 2.5-10 μg Thymidine Kinase, 100 μM thymidine or thymidine-drug conjugate in a volume of 75 μl. ATP (5 mM in 25 μl H2O) was added to initiate the reaction and the velocity of ATP depletion was monitored at 340 nm continuously for 15 minutes.

The next series has as its target T2, Topoisomerase II (Homo sapiens, UniProt P11388).
T2 construct: purchased TopoGEN Inc. (Columbus, Ohio) 1009-1
As to the kind of experiment: Topoisomerase II assay. Format: biochemical. The conditions noted are these: doxorubicin and its conjugates; percent activity of Doxorubicin. The procedure:
In certain embodiments, activity of doxorubicin conjugates was assayed by monitoring alteration in the ability of Topoisomerase II, by electrophoresis, to catalyze the formation of relaxed conformation DNA from a super-coiled plasmid.
Specifically the kit was used to assay whether Doxorubicin conjugates altered the ability of Topoisomerase II to catalyze the formation of relaxed conformation DNA from a super-coiled plasmid. Doxorubicin conjugates were compared directly to Doxorubicin at 10, 3, 1, 0.3, 0.1 and 0.03 micromolar concentrations. The quantity of relaxed conformation DNA was quantified from an agarose gel on which is it is separated from the super-coiled DNA by standard electrophoresis. […] The results are presented in terms of percent activity of Doxorubicin.

Series [2] relates to MCF-7 breast carcinoma. As to the kind of experiment: Cytotoxicity assay (monolayer), MCF-7. Format: cell-based. Particulars: Homo sapiens, MCF7. As to the method:
(§1) Statistical Assoc., 81, 991-999, 1986.
(§2) Monolayer assays with tumor cell lines (MCF-7 breast carcinoma and HT-29 colorectal carcinoma from ATCC) were carried out in triplicate in 96-well plates with RPMI1640 medium containing 5% fetal bovine serum, 100 U/ml penicillin and 100 μg/ml streptomycin. Normal human foreskin fibroblasts (HFF #CC-2509) were from Cambrex and were cultured in FGM-2 medium. Exponentially growing cells (5,000 MCF-7 or HT-29; 1,500 HFF) were plated in 100 μl medium and incubated overnight (5% CO2, 37° C.). Compounds (20 pM to 20 μM final concentration, 6-8 doses) and vehicle (DMSO) controls were added and the incubation was continued for an additional 72 hours. Final cell density was determined by incubating cultures with 25 μl AlamarBlue reagent (BioSource, Camarillo, Calif.) for 4 hours, followed by determination of fluorescence at excitation of 544 nm and emission of 590 nm with a SpectroMax Gemini EM fluorescence plate reader (Molecular Devices, Sunnyvale, Calif.). EC50 values were generated from dose-response curves by a 4-parameter method using Softmax PRO software. Mean EC50s (±SD) represent the average of all tests carried out for all lots of a given compound. […] Statistical Assoc., 81, 991-999 (1986).

For the next series, the system named is HUVEC. As to the kind of experiment: Cytotoxicity assay (monolayer), HUVEC. Format: cell-based. The conditions noted are these: Homo sapiens, read-out: HUVEC (EC50 Ave) ML.
Series [3] relates to Normal human foreskin fibroblasts (HFF). As to the kind of experiment: Cytotoxicity assay (monolayer), HFF. Format: cell-based. Particulars: Fibroblast. As to the method:
as §1, §2

Series [4] relates to HT-29 colorectal carcinoma. As to the kind of experiment: Cytotoxicity assay (monolayer), HT-29. Format: cell-based. Particulars: Homo sapiens. As to the method: as §1, §2
Another series concerns tubulin. As to the kind of experiment: Fluorescence-based microtubule polymerization assay (MPA). Format: biochemical. Particulars: mean percentage of paclitaxel or vinblastine activity; 0.75-10 micromolar. Summed up:
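Tubulin polymerization was followed by fluorescence (ex 360/em 405 nm) in a commercial kit with 1 mg/ml BSA added to every assay, glycerol being omitted for paclitaxel conjugates. Parent drugs and conjugates were tested at 0.75, 1.5, 3 and 10 micromolar final. Curves from the linear range of the dose responses were compared.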

Series [5] is described as follows: Serum stability in RPMI1640 medium containing 10% fetal bovine serum. Format: in vitro ADME. As to the method:
The stability of conjugates was measured in RPMI1640 cell culture medium containing 10% fetal bovine serum. The serum-containing medium was pre-warmed at 37° C. for 3 min prior to addition of test articles. Test articles, prepared in DMSO as 5 mM stocks, were added to the cell culture media to a final concentration of […]. Aliquots ([…]) were withdrawn in triplicate at 0, 4, 8, 24 and 72 hours and combined with the same volume of ice-cold acetonitrile to terminate the reaction. The mixture was centrifuged at 2,000×g for 10 minutes. One part of the supernatant was mixed with four parts of deionized water to bring down the percentage of organic solvent. The diluted samples were then assayed by LC/MS for the test article. The natural log of the percent remaining was plotted versus time. A linear fit was used to determine the rate constant. The fit was truncated after the percent of remaining test article was less than 10%. The elimination half-lives associated with the disappearance of test articles were determined to compare their relative stability. The assays were carried out by Absorption Systems (Exton, Pa.).

Series [6] deals with MCF-7 breast carcinoma. As to the kind of experiment: Cytotoxicity assay (soft agar), MCF-7. Particulars: Homo sapiens.
The subject of series [7] is HT-29 colorectal carcinoma. As to the kind of experiment: Cytotoxicity assay (soft agar), HT-29. Particulars: Homo sapiens.
The subject of another series is MCF7. As to the kind of experiment: Cytotoxicity assay, MCF7 SSA (SSA not explained). Format: cell-based. The conditions noted are these: Homo sapiens.
Another series concerns HT29. As to the kind of experiment: Cytotoxicity assay, HT29 SSA (SSA not explained). The conditions noted are these: Homo sapiens, HT-29; read-out: HT29 (EC50 Ave) SSA. Format: cell-based.
Series [8] relates to breast carcinoma, colon carcinoma and leukemia. As to the kind of experiment: Cytotoxicity of drug-thymidine conjugates (Example 22). Format: cell-based.
Setting [9] is: monolayer, 72 hours, AlamarBlue, read-out: MCF7 (EC50 Ave) ML.
Setting [10] is: monolayer, 72 hours, AlamarBlue, read-out: HFF (EC50 Ave) ML.
Where [11] appears, read: monolayer, 72 hours, AlamarBlue, read-out: HT29 (EC50 Ave) ML.
Where [12] appears, read: MCF7, read-out: MCF7 (EC50 Ave) SA.
Setting [13] is: HT-29, read-out: HT29 (EC50 Ave) SA.

Structures are written as SMILES. Like-named read-outs stand apart in the source and are kept apart here.

T2 sequence (P11388 whole entry): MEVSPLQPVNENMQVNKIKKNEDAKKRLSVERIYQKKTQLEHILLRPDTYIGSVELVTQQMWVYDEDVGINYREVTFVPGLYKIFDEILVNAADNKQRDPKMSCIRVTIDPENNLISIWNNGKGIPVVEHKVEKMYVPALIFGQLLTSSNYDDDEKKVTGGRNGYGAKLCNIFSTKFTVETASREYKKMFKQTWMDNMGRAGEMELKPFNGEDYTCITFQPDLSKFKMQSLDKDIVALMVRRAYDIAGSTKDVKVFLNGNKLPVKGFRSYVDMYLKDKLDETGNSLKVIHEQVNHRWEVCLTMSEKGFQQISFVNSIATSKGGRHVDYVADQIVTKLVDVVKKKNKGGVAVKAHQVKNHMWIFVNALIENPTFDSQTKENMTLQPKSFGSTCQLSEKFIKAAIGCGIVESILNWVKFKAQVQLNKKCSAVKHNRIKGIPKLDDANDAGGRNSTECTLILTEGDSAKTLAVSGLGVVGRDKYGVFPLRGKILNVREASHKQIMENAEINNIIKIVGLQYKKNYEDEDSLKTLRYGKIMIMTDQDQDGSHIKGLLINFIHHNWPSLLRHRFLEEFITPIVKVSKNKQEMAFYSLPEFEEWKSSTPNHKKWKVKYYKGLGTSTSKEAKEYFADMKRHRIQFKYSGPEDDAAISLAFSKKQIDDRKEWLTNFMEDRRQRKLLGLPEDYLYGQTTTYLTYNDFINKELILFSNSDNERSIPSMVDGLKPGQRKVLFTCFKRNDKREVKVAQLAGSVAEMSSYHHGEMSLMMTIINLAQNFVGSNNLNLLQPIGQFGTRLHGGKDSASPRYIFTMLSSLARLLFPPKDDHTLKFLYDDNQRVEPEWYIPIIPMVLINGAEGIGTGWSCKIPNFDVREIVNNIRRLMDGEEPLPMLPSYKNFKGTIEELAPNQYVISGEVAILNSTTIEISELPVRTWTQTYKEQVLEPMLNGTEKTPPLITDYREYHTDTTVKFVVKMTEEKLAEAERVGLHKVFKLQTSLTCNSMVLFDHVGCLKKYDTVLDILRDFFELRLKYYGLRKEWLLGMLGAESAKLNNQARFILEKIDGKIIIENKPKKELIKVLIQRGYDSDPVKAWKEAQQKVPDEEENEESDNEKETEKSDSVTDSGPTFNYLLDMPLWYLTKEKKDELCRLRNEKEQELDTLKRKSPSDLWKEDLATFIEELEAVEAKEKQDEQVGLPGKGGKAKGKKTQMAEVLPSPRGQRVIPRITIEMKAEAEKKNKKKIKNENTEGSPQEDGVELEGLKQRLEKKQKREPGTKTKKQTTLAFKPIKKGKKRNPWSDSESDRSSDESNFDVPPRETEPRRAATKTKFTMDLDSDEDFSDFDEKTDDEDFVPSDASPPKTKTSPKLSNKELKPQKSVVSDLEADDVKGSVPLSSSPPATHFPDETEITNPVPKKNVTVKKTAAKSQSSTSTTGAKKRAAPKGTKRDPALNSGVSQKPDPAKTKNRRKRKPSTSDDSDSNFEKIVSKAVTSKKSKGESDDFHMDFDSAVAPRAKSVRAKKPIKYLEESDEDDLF

As a reminder, the EC50 is the concentration at which the effect is half-maximal. For the compound `COc1cccc2c1C(=O)c1c(O)c3c(c(O)c1C2=O)C[C@@](O)(C(=O)CO)C[C@@H]3OC1CC(NCCCN2C(=O)CC(SCCC(=O)NCCCCCCn3c(=O)c(C)cn([C@H]4CC(O)[C@@H](CO)O4)c3=O)C2=O)C(O)C(C)O1` (stereo partly shown) [DOX-3′ALK-MALa(17)-N3-THY], the “Ave. TK1 Kinase Act.” value in series [1] is on record as “A (A<20)”. Also, the “Ave. MPA Act (doxorubicin)” value on Topoisomerase II was “A (A<60)”. The EC50 (in the series on MCF-7 breast carcinoma [2] (setting [9]); in the series with HUVEC; in series [3] (setting [10])) was above 1000 nM throughout.
`COc1cccc2c1C(=O)c1c(O)c3c(c(O)c1C2=O)C[C@@](O)(C(=O)CO)C[C@@H]3O[C@H]1C[C@H](N)[C@H](O)[C@H](C)O1` [Doxorubicin]: in [1], the “Ave. TK1 Kinase Act.” value was “A (A<20)”. Also, at Topoisomerase II, the “Ave. MPA Act (doxorubicin)” value is reported as “C (C>100)”. Moreover, the EC50 in the series on MCF-7 breast carcinoma [2] (setting [9]) is below 100 nM; in series [4] (setting [11]) it was 100 to 1000 nM; in the series with HUVEC it was below 100 nM; in series [3] (setting [10]), below 100 nM.
As usually defined, the half-life is the time in which the quantity being followed falls by half. The low end stands for rapid decline, the high end for slow decline. Consider `CC(=O)O[C@H]1C(=O)C2(C)[C@@H](OC(=O)NCCCCCCn3c(=O)c(C)cn([C@H]4CC(O)[C@@H](CO)O4)c3=O)CC3OC[C@]3(OC(C)=O)[C@H]2[C@H](OC(=O)c2ccccc2)[C@]2(O)C[C@H](OC(=O)[C@H](O)[C@@H](NC(=O)c3ccccc3)c3ccccc3)C(C)=C1C2(C)C` (stereo partly shown) [PXL-7Ca-ALK(6)-N3-THY], for which the “Ave. TK1 Kinase Act.” value in series [1] is on record as “A (A<20)”. The “Ave. MPA Act” value in the series with tubulin is reported as “B (B=60-100)”. Besides, the 50% effective concentration (EC50) with MCF-7 breast carcinoma [2] (mean ± SD, read-out: MCF-7 Monolayer EC50) is 120 ± 73 nM; in the series on MCF-7 breast carcinoma [2] (setting [9]), below 100 nM; in series [4] (mean ± SD, read-out: HT-29 Monolayer EC50) it was 258 ± 129 nM; in [4] (setting [11]) it was 100 to 1000 nM; in the series on HUVEC, 100 to 1000 nM; in series [3] (mean ± SD, read-out: HFF Monolayer EC50) it was 457 ± 310 nM. The EC50 in [3] (setting [10]) was 100 to 1000 nM; in the series with MCF-7 breast carcinoma [6] (setting [12]), below 100 nM; with MCF-7 breast carcinoma [6] (MCF7, read-out: MCF-7 Soft Agar EC50), 40 ± 41 nM; in series [7] (setting [13]), 100 to 1000 nM; in series [7] (HT-29, read-out: HT-29 Soft Agar EC50) it was 120 ± 4 nM. Further, in series [5] (37° C., medium with 10% fetal bovine serum, 0 hr), the “Relative Percent Remaining at 0 hr” value is listed as 100%. In addition, the “Relative Percent Remaining at 4 hr” value in [5] (37° C., medium with 10% fetal bovine serum, 4 hr) was found to be 84%. Besides, the “Relative Percent Remaining at 8 hr” value in [5] (37° C., medium with 10% fetal bovine serum, 8 hr) amounted to 90%. Moreover, the “Relative Percent Remaining at 24 hr” value in series [5] (37° C., medium with 10% fetal bovine serum, 24 hr) is 80%. The “Relative Percent Remaining at 72 hr” value in series [5] (37° C., medium with 10% fetal bovine serum, 72 hr) is on record as 38%. The same compound gave a half-life in series [5] (bovine, serum) of 55 h.
As to `CC[C@]1(O)CC2CN(CCc3c([nH]c4ccccc34)[C@@](C(=O)OC)(c3cc4c(cc3OC)N(C)[C@H]3C(O)(C(=O)NCCOCCOCCOCCN)[C@H](O)[C@]5(CC)C=CCN6CCC43[C@@H]65)C2)C1` (stereo partly shown) [VBL-3Am-PEG(11)-NH2, deacetylvinblastine-3-(amido-PEG-amine)], the “Ave. MPA Act” value in the series on tubulin is “B (B=60-100)”. Further, the EC50 with MCF-7 breast carcinoma [2] (setting [9]) is 100 to 1000 nM; in series [4] (setting [11]), 100 to 1000 nM; with HUVEC, below 100 nM; in series [3] (setting [10]), below 100 nM; with MCF7 it was below 100 nM; with HT29, below 100 nM. In addition, the EC50 (with MCF-7 breast carcinoma [6] (setting [12]); in [7] (setting [13])) was below 100 nM throughout.
In the case of `CC[C@]1(O)C[C@@H]2CN(CCc3c([nH]c4ccccc34)[C@@](C(=O)OC)(c3cc4c(cc3OC)N(C)[C@H]3[C@@](O)(C(=O)OC)[C@H](OC(C)=O)[C@]5(CC)C=CCN6CC[C@]43[C@@H]65)C2)C1` [Vinblastine], in series [1], the “Ave. TK1 Kinase Act.” value is recorded as “A (A<20)”. Moreover, in the series with tubulin, the “Ave. MPA Act” value is recorded as “C (C>100)”. Also, the EC50 with MCF-7 breast carcinoma [2] (setting [9]) was below 100 nM; in series [4] (setting [11]), below 100 nM; in [3] (setting [10]), below 100 nM; in the series on MCF7, below 100 nM; in the series with HT29, below 100 nM; in series [8], 1 to 2 nM. Moreover, the EC50 (with MCF-7 breast carcinoma [6] (setting [12]); in [7] (setting [13])) was below 100 nM throughout.

Values taken from patent US20050148534A1, “Small molecule compositions and methods for increasing drug efficiency using compositions thereof” (priority 2003, published 2005).
